Consider six molecules from paper PMC4769301, “Affinity Enhancement by Ligand Clustering Effect Inspired by Peptide Dendrimers−Shank PDZ Proteins Interactions” (PLoS ONE, 2016).

Test [1] has as its target T1, Shank1 PDZ (Rattus norvegicus, UniProt Q9WV48).
T1 construct: His tag; made in house; host or cells: E. coli BL21
T1 sequence (Q9WV48 653-765): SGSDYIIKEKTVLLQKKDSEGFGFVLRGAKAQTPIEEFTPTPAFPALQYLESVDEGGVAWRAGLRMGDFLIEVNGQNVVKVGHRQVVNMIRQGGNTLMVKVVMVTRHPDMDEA
The test can be described thus: Native mass spectrometry, Shank1 PDZ. Format: binding. The conditions noted are these: for complexes with higher stoichiometry such as 2:1 or 3:1: native MS, protein/peptide ratio 4:1, protein in excess, within the detection limit of native MS. As to the method:
Prior to the experiment, the protein solution was extensively dialyzed at 4°C against 150mM ammonium acetate. During the dialysis, Shank1 PDZ yielded no precipitate, while Shank3 PDZ was largely precipitated out. Increasing the concentration of ammonium acetate to 200–500 mM couldn’t alleviate precipitation. Lyophilized peptides were also dissolved in the 150 mM ammonium acetate. All the peptides and protein solution were filtered through 0.1 μm membrane, and their concentrations were adjusted according to experiments requirement. The protein and peptide were mixed as the corresponding ratio and incubated at room temperature for 20 minutes.
Positive ion electrospray ionization mass spectra were acquired on a Micromass Q-Tof micro mass spectrometer (Waters), with a nanoESI source using EconoTips. The capillary voltage was adjusted in the range of 1.2–2.2 kV until optimal ion signals were obtained. The cone voltage of the Q-TOF was set at 20 V, and the ion source temperature was set at 40°C.

Test [2] concerns the target T1, Shank1 PDZ. The test can be described thus: Surface plasmon resonance, immobilized Shank1 PDZ. Particulars: for kon: pH 7.4, read-out: association rate constant kon; for koff: pH 7.4, read-out: dissociation rate constant koff. In kind it is binding. On the procedure:
Prior to use, lyophilized peptides were dissolved in the storage buffer (50 mM sodium phosphate, 200 mM NaCl, pH 7.4) at high concentration and diluted to required concentration using running buffer (HBS-EP: 0.01 M HEPES pH 7.4, 0.15 M NaCl, 3 mM EDTA, 0.005% v/v Surfactant P20). All the peptides and protein solution were filtered through 0.1 μm membrane, and their concentrations were adjusted according to experiments requirement: for ligand p1, concentration series of 10.8 μM, 21.6 μM, 43.2 μM, 86.5μM, 173μM, 346μM were used; for ligand p2, concentrations series of 10 μM, 20 μM, 40 μM, 80 μM, 160 μM, 320 μM were used; for ligand p3, concentrations series of 2.63 μM, 5.27 μM, 10.5 μM, 21.1 μM, 42.1 μM, 84.3 μM were used. All sample solution and running buffer were extensively degassed just before titration. Shank1 PDZ protein was coupled on CM5 chip using EDC/NHS method.
Running were performed at 25°C on Biacore 3000 (GE), and data were processed by BIAevaluation software and fitted to steady state affinity model and 1:1 Langmuir binding model. 1:1 Langmuir binding model which show kinetics data was analyzed by BIAevaluation software. Steady state affinity model which show affinity data was analyzed by Origin software using the following equation: Req=KACRmax/1+KACn

Test [3] addresses T2, Shank3 PDZ (Mus musculus, UniProt Q4ACU6).
T2 construct: His tag; made in house; host or cells: E. coli BL21
T2 sequence (Q4ACU6 533-665): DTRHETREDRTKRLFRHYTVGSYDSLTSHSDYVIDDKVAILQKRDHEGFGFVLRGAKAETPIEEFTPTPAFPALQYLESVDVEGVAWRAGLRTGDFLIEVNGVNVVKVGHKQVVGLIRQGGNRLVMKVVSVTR
The test can be described thus: Isothermal titration calorimetry, Shank3 PDZ. In kind it is binding. An excerpt:
(§1) Gene encoding the Shank1 PDZ (Swiss-Prot accession number Q9WV48.1, residues 653–765) was synthesized by GenScript Inc., and digested by Nde I and Xho I restriction enzymes and ligated into pET28a vector to generate pET28-Shank1 PDZ plasmid (S1A Fig). The plasmid pET.M.3C Shank3 PDZ (Swiss-Prot accession number Q4ACU6.3, residues 533–665) was a gift from Prof. Mingjie Zhang’s group from Division of Life Science, Hong Kong University of Science and Technology. The recombinant plasmid pET28-Shank1 PDZ and pET.M.3C Shank3 PDZ were transformed into E. coli BL21 cells for protein production. Mono-clones were pre-cultured overnight at 37°C, and then cultures were added to new media, shaken at 37 °C until optical density at 600 nm reached 0.6–0.8. Then isopropyl β-D-1-thiogalactopyranoside was added at final concentration 1 mM to induce protein overexpression, the culture was shaken overnight at 16°C.
(§2) Prior to use, lyophilized peptides were dissolved in the storage buffer (50 mM sodium phosphate, 200 mM NaCl, pH 7.4). All the peptides and protein solution were filtered through 0.1 μm membrane, and their concentrations were adjusted according to experiments requirement: except for the binding pair p1 ligand and Shank1 PDZ, the proteins concentration were between 30–40 μM, ligands concentration were between 300–400 μM; and for the binding pair p1 ligand and Shank1 PDZ, the affinity was very low so that protein concentration was adjusted to about 315 μM and p1 ligand concentration was adjusted to about 3.14 mM to get accuracy affinity data. All the solutions were extensively degassed just before titration. Titrations were performed at 25°C by MicroCal VP-ITC (Malvern), and data were analyzed by Origin software (Origin Lab) and fitted to single-binding-site model.

The target in test [4] is T1, Shank1 PDZ. The test can be described thus: Isothermal titration calorimetry, Shank1 PDZ. Format: binding.
Excerpt: as §1, §2

In test [5] the target is T3, p2 (dimeric peptide, BM(PEG)2) (also: dimer via Cys-BM(PEG)2 linker).
T3 chain: Ac-CGSSGDPAWDETNL
The test can be described thus: ITC.

The target of test [6] is T4, p3 (trimeric peptide, TMEA) (also: trimer via Cys-TMEA linker).
T4 chain: Ac-CGSSGDPAWDETNL
The test can be described thus: ITC. On the technique in general: In ITC the heat of successive injections is recorded.

For test [7], the target named is T5, p1 (monomeric βPIX peptide) (Rattus norvegicus).
T5 chain: CGSSGDPAWDETNL
The test can be described thus: ITC.

For test [8], the target named is T3, p2 (dimeric peptide, BM(PEG)2). The test can be described thus: native MS.
Test [9] concerns the target T4, p3 (trimeric peptide, TMEA). The test can be described thus: native MS.
For test [10], the target named is T5, p1 (monomeric βPIX peptide). The test can be described thus: native MS.
Test [11] has as its target T6, dimeric peptide BM(PEG)3 (also: dimer via Cys-BM(PEG)3 linker).
T6 chain: Ac-CGSSGDPAWDETNL
The test can be described thus: ITC.

For test [12], the target named is T3, p2 (dimeric peptide, BM(PEG)2). The test can be described thus: SPR kinetics. On the technique in general: Surface plasmon resonance follows binding to a sensor surface in real time, without labels.
For test [13], the target named is T4, p3 (trimeric peptide, TMEA). The test can be described thus: SPR kinetics.
The target in test [14] is T3, p2 (dimeric peptide, BM(PEG)2). The test can be described thus: SPR steady state.
Test [15] addresses T4, p3 (trimeric peptide, TMEA). The test can be described thus: SPR steady state.
For test [16], the target named is T5, p1 (monomeric βPIX peptide). The test can be described thus: SPR steady state.
For test [17], the target named is T3, p2 (dimeric peptide, BM(PEG)2). The test can be described thus: ITC (diluted ligand).
The target in test [18] is T4, p3 (trimeric peptide, TMEA). The test can be described thus: ITC (diluted ligand).

In general, kon refers to a measure of how fast the partners come together. One may read the koff as the first-order rate constant of dissociation.

Several values for one entry are separate records, joined by “and”; a condition that tells them apart may be missing. Equal values may be shown once. Read-outs that look alike come from different tables or passages of the source. Numbered stars: 1 amine (or outer) side, 2 acyl side, 3 side chain; on linkers, the order of the positions; unused ones are H or OH. Bridge positions count the residues as written; N and C are the ends. Ends that are not written are not given here. Peptide text beside a SMILES is read from it. I, II: the chains in the order shown. X1 = O=C1CC([*:1])C(=O)N1CCN(CCN1C(=O)CC([*:2])C1=O)CCN1C(=O)CC([*:3])C1=O; X3 = O=C1CC([*:1])C(=O)N1CCOCCOCCOCCN1C(=O)CC([*:2])C1=O; X2 = O=C1CC([*:1])C(=O)N1CCOCCOCCN1C(=O)CC([*:2])C1=O

With GSGSGDPAWDETNL-OH [p1], the Kd is roughly 13 µM in [1] (rough estimation from peak intensities, 1:1 mixture, 150 mM ammonium acetate, 65 μM each, gas-phase measurement, read-out: dissociation constant estimated from native MS peak intensity); 45 ± 6 µM in test [2] (Biacore 3000, 25°C, HBS-EP pH 7.4, Shank1 PDZ coupled on CM5 chip, steady state affinity model, n = 1, read-out: dissociation constant (SPR, steady state affinity model)); 24 ± 2 µM in test [3] (MicroCal VP-ITC, 25°C, 50 mM sodium phosphate, 200 mM NaCl, pH 7.4, single-binding-site model, [p1] = 406 μM/[Shank3 PDZ] = 40 μM, [p2] = 400 μM/30 μM, [p3] = 315 μM/34 μM, read-out: Kd (ITC)); 41 ± 1 µM in test [4] (MicroCal VP-ITC, 25°C, 50 mM sodium phosphate, 200 mM NaCl, pH 7.4, single-binding-site model, [p1] = 4 mM/[Shank1 PDZ] = 400 μM, [p2] = 326 μM/43 μM, [p3] = 354 μM/35 μM (Fig 3A), read-out: dissociation constant Kd (ITC)).

`CC(=O)N[C@@H](CSC1CC(=O)N(CCOCCOCCOCCN2C(=O)CC(SC[C@H](NC(C)=O)C(=O)NCC(=O)N[C@@H](CO)C(=O)N[C@@H](CO)C(=O)NCC(=O)N[C@@H](CC(=O)O)C(=O)N3CCC[C@H]3C(=O)N[C@@H](C)C(=O)N[C@@H](Cc3c[nH]c4ccccc34)C(=O)N[C@@H](CC(=O)O)C(=O)N[C@@H](CCC(=O)O)C(=O)N[C@H](C(=O)N[C@@H](CC(N)=O)C(=O)N[C@@H](CC(C)C)C(=O)O)[C@@H](C)O)C2=O)C1=O)C(=O)NCC(=O)N[C@@H](CO)C(=O)N[C@@H](CO)C(=O)NCC(=O)N[C@@H](CC(=O)O)C(=O)N1CCC[C@H]1C(=O)N[C@@H](C)C(=O)N[C@@H](Cc1c[nH]c2ccccc12)C(=O)N[C@@H](CC(=O)O)C(=O)N[C@@H](CCC(=O)O)C(=O)N[C@H](C(=O)N[C@@H](CC(N)=O)C(=O)N[C@@H](CC(C)C)C(=O)O)[C@@H](C)O` (some centres unmarked) [dimeric peptide BM(PEG)3] (I: Ac-CGSSGDPAWDETNL-OH / II: Ac-CGSSGDPAWDETNL-OH; linker I:1-II:1 via X3) displayed a Kd in test [4] of 13.7 ± 0.7 µM.

Turning to `CC(=O)N[C@@H](CSC1CC(=O)N(CCOCCOCCN2C(=O)CC(SC[C@H](NC(C)=O)C(=O)NCC(=O)N[C@@H](CO)C(=O)N[C@@H](CO)C(=O)NCC(=O)N[C@@H](CC(=O)O)C(=O)N3CCC[C@H]3C(=O)N[C@@H](C)C(=O)N[C@@H](Cc3c[nH]c4ccccc34)C(=O)N[C@@H](CC(=O)O)C(=O)N[C@@H](CCC(=O)O)C(=O)N[C@H](C(=O)N[C@@H](CC(N)=O)C(=O)N[C@@H](CC(C)C)C(=O)O)[C@@H](C)O)C2=O)C1=O)C(=O)NCC(=O)N[C@@H](CO)C(=O)N[C@@H](CO)C(=O)NCC(=O)N[C@@H](CC(=O)O)C(=O)N1CCC[C@H]1C(=O)N[C@@H](C)C(=O)N[C@@H](Cc1c[nH]c2ccccc12)C(=O)N[C@@H](CC(=O)O)C(=O)N[C@@H](CCC(=O)O)C(=O)N[C@H](C(=O)N[C@@H](CC(N)=O)C(=O)N[C@@H](CC(C)C)C(=O)O)[C@@H](C)O` (some centres unmarked) [p2] (I: Ac-CGSSGDPAWDETNL-OH / II: Ac-CGSSGDPAWDETNL-OH; linker I:1-II:1 via X2), the Kd was roughly 5.3 µM in test [1]; 5.9 ± 0.4 µM in [3]; 16.6 µM and 18 µM in test [4]. Further, in test [1], the “complexes with higher stoichiometry such as 2:1 or 3:1” value is listed as “not observed”. Besides, the kon in [2] was determined as 65200 M⁻¹ s⁻¹. Further, the koff in [2] worked out at 1.12 s⁻¹.

For “I: Ac-CGSSGDPAWDETNL-OH / II: Ac-CGSSGDPAWDETNL-OH / III: Ac-CGSSGDPAWDETNL-OH (linker I:1-II:1-III:1 via X1) [p3]”, in [1], the Kd was roughly 4.5 µM and the “complexes with higher stoichiometry such as 2:1 or 3:1” value is listed as “not observed”. The difference in kon result in test [2] (SPR, 1:1 Langmuir binding model, ligand p3 compared with ligand p2) is listed as “about 1.2 fold”. Besides, in test [2], the kon amounted to 78900 M⁻¹ s⁻¹ and the koff was 0.353 s⁻¹. In addition, the Kd in test [3] was 1.9 ± 0.1 µM. In addition, in test [4], the Kd was 8.1 µM and 6.5 µM.

B1: Shank3 PDZ 533-665 (protein)
chain: DTRHETREDRTKRLFRHYTVGSYDSLTSHSDYVIDDKVAILQKRDHEGFGFVLRGAKAETPIEEFTPTPAFPALQYLESVDVEGVAWRAGLRTGDFLIEVNGVNVVKVGHKQVVGLIRQGGNRLVMKVVSVTR
With B1, the Kd in [5] was 5.9 µM; in test [6] it was 1.9 µM; in [7], 24 µM.

B2: Shank1 PDZ 653-765 (protein)
chain: SGSDYIIKEKTVLLQKKDSEGFGFVLRGAKAQTPIEEFTPTPAFPALQYLESVDEGGVAWRAGLRMGDFLIEVNGQNVVKVGHRQVVNMIRQGGNTLMVKVVMVTRHPDMDEA
Turning to B2, the Kd in [8] was roughly 5.3 µM; in test [9], roughly 4.5 µM; in test [10], roughly 13 µM; in test [5] it was 16.6 µM; in [11], 13.7 µM; in test [6] it was 8.1 µM. For the same molecule, the Kd in test [7] was found to be 41 µM; in test [12], 17.1 µM; in test [13] it was 4.48 µM; in [14] it was 19 µM; in [15], 6 µM; in [16] it was 45 µM. Besides, the results for the Kd in [17] and in test [18] were 18 µM and 6.5 µM, respectively.
